Paper PMC11367503, “Exploring galectin interactions with human milk oligosaccharides and blood group antigens identifies BGA6 as a functional galectin-4 ligand” (The Journal of Biological Chemistry, 2024)
Values joined by “and” are separate entries in the source; they are usually repeats but may differ in a detail not shown here. Equal values may be shown once.

Assays:
Format in all cases: binding
human Gal-12 [1] = target: T1, human Gal-12 (Homo sapiens, UniProt Q96DT0); experiment: Competitive solid-phase assay (SPA), immobilized asialofetuin, Gal-12; conditions: mean ± S.D., three independent experiments
T1 construct: To obtain full-length human Gal-12, we adapted our previously optimized procedure for murine Gal-12; made in house; host or cells: Escherichia coli Rosetta 2 (DE3)
T1 sequence (Q96DT0 1-336): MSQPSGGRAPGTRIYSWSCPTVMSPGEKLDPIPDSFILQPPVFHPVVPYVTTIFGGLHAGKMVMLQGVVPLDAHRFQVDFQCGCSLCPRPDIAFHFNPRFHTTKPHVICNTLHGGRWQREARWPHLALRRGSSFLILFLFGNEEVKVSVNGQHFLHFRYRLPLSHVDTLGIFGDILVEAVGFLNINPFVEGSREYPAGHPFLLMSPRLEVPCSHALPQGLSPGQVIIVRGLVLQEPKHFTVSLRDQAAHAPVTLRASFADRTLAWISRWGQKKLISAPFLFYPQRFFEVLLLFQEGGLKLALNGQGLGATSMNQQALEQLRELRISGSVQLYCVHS
Procedure: (§1) The assay was adapted from Rapoport et al. (2010) ([88]). Briefly, 96-well plates (flat-bottom) were coated with 10 μg/ml asialofetuin (ASF, Sigma-Aldrich) in sodium carbonate buffer (pH 9.6) and incubated overnight at 4 °C. Then, wells were washed three times with 100 μl/well PBS-Tween 0.05% (w/v) and blocked with 100 μl/well PBS-bovine serum albumin (BSA) 2% (1 h, room temperature (RT)) in a humid chamber. Meanwhile, equal volumes of human recombinant Gal-1, -3, -4, -7, and -12 (20–40 μg/ml) in PBS-BSA 0.3% buffer were preincubated with the corresponding inhibitors in serial dilutions (2 h, 37 °C). After washing, galectins were detected using the corresponding antigalectin primary detection antibodies in PBS-BSA 0.3% w/v (1 h at RT). For Gal-1, wells were incubated with an in-house purified 100 ng/ml biotinylated rabbit anti–human Gal-1 polyclonal immunoglobulin G. For Gal-3, -4, and -7, a 1:500 dilution of the corresponding biotinylated anti-human galectin antibodies was used (BAF1154, BAF1227, and MAB13391, respectively, R&D Systems). For Gal-12, a rabbit anti-human Gal-12 polyclonal antibody (Santa Cruz Biotechnology, 1:700) was used. For Gal-1, -3, -4, and -7, plates were rinsed three times before adding 0.33 μg/ml horseradish peroxidase (HRP)-labeled streptavidin (Sigma-Aldrich) for 30 min. For Gal-12, an anti-rabbit secondary antibody conjugate coupled to HRP was incubated for 1 h at RT in PBS-BSA 0.3% w/v. After washing, 100 μl TMB solution (0.1 mg/ml tetramethylbenzidine and 0.06% H2O2 in citrate-phosphate buffer, pH 5.0) was added to plates. The reaction was stopped by adding a 2N H2SO4 solution. Absorbance was determined at 450 nm in a Multiskan MS microplate reader (Thermo Fisher Scientific).

human Gal-4 [2] = target: T2, human Gal-4 (Homo sapiens, UniProt P56470); experiment: Competitive solid-phase assay (SPA), immobilized asialofetuin, Gal-4; conditions: mean ± S.D., three independent experiments
T2 construct: His6-SUMO (N, cleaved yes); made in house; host or cells: Escherichia coli BL21 (DE3)
T2 sequence (P56470 1-323): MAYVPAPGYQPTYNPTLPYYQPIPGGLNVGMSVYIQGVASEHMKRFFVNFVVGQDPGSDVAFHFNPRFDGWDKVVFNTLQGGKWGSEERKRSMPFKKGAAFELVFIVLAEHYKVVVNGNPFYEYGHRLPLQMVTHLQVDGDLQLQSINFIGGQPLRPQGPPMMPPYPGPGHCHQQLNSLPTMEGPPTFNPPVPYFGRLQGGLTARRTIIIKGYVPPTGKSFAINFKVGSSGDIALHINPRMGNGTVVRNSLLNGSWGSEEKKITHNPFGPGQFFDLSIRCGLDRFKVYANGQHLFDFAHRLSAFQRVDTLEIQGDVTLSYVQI
Procedure: as §1

human Gal-7 [3] = target: T3, human Gal-7 (Homo sapiens, UniProt P47929); experiment: Competitive solid-phase assay (SPA), immobilized asialofetuin, Gal-7; conditions: competitive SPA, immobilized asialofetuin; mean ± S.D., three independent experiments
T3 construct: made in house; host or cells: Escherichia coli BL21 (DE3)
T3 sequence (P47929 whole entry): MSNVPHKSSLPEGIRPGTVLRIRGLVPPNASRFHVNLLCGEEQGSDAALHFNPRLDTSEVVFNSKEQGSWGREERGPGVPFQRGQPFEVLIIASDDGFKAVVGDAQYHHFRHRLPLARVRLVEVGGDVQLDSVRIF
Procedure: as §1

human Gal-1 = target: T4, human Gal-1 (Homo sapiens, UniProt P09382); experiment: Competitive solid-phase assay (SPA), immobilized asialofetuin, Gal-1; conditions: mean ± S.D., three independent experiments
T4 construct: made in house; host or cells: Escherichia coli BL21 (DE3)
T4 sequence (P09382 whole entry): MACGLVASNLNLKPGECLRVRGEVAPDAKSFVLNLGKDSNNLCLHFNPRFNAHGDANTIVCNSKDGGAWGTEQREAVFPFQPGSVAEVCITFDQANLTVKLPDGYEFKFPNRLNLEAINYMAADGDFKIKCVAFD
Procedure: as §1

human Gal-3 = target: T5, human Gal-3 (Homo sapiens, UniProt P17931); experiment: Competitive solid-phase assay (SPA), immobilized asialofetuin, Gal-3; conditions: mean ± S.D., three independent experiments
T5 construct: made in house; host or cells: Escherichia coli BL21 (DE3)
T5 sequence (P17931 whole entry): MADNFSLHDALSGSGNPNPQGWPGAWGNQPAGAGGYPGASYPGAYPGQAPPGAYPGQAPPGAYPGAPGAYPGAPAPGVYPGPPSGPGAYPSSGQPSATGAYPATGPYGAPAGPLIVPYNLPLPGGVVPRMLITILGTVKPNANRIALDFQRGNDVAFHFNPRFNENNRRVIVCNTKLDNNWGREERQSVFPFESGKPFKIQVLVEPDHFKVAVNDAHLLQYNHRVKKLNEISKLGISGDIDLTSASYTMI
Procedure: as §1

human Gal-7 [4] = target: T3, human Gal-7; experiment: Isothermal titration calorimetry (ITC), Gal-7; conditions: Gal-7, PBS, 298 K, n fixed to 1.00
Procedure: (§2) All ITC experiments were performed by using a NanoITC (TA Instruments) under previously optimized conditions ([89]). A typical titration involved 20 injections at 300 s intervals of 2.5 μl aliquots of a 2.5 to 10 mM ligand solution into the sample cell (volume 200 μl) containing the different galectins (30–100 μM). The solutions were prepared by dissolving the glycan ligands in degassed PBS buffer at 298 K. The titration cell was continuously stirred at 300 rev/min. The heats of dilution of the ligands in the buffer were subtracted from the titration data. […] Fitting was performed using the Nano Analyze software (TA Instruments; https://www.tainstruments.com/itcrun-dscrun-nanoanalyze-software/) to determine association constants (Ka) and the enthalpy change (ΔH). No reliable fit of the thermodynamic parameters could be obtained for binding affinities above 80 μM.

human Gal-12 [5] = target: T1, human Gal-12; experiment: Isothermal titration calorimetry (ITC), Gal-12; conditions: Gal-12, PBS, 298 K, n fixed to 1.00
Procedure: as §2

human Gal-4 [6] = target: T2, human Gal-4; experiment: Isothermal titration calorimetry (ITC), Gal-4; conditions: Gal-4, PBS, 298 K; for Kd: n fixed to 1.00
Procedure: as §2

Row | IC50 (human Gal-12 [1]) | IC50 (human Gal-4 [2]) | IC50 (human Gal-7 [3]) | IC50 (human Gal-1) | IC50 (human Gal-3) | Kd (human Gal-7 [4]) | Kd (human Gal-12 [5]) | -TΔS (human Gal-4 [6]) | ΔH (human Gal-4 [6]) | Kd (human Gal-4 [6]) | SMILES
1 | 30.3 ± 9 mM | 0.2 ± 0.1 mM | 2.5 ± 0.8 mM | 6.2 mM and 6.19 mM | 1.2 ± 0.5 mM |  |  |  |  |  | CC(=O)NC1C(OC2C(O)C(CO)OC(OC3C(O)C(CO)OC(O)C3NC(C)=O)C2OC2OC(C)C(O)C(O)C2O)OC(CO)C(O)C1O (stereo not drawn) [BGA1, blood group A antigen 1]
2 | 11.1 ± 1 mM |  | 1.7 ± 0.2 mM | 2.2 ± 0.03 mM | 11 ± 0.9 mM | 0.097 ± 0.009 mM |  |  |  |  | CC(=O)NC1C(O)CC(OC2C(O)C(CO)OC(OC3C(CO)OC(O)C(O)C3O)C2O)(C(=O)O)OC1C(O)C(O)CO (stereo not drawn) [3’-SL, 3′-sialyllactose]
3 | 63.5 ± 0.8 mM | 1.5 ± 0.6 mM | 8.3 ± 0.5 mM | 1.2 mM and 1.23 mM | 4.2 ± 0.3 mM |  |  |  |  | 0.13 ± 0.009 mM | CC1OC(OC2C(OC3C(CO)OC(O)C(O)C3O)OC(CO)C(O)C2O)C(O)C(O)C1O (stereo not drawn) [2’-FL, 2′-fucosyllactose]
4 | 82.1 ± 0.8 mM | 23.1 mM | 3 ± 0.6 mM |  |  |  |  |  |  |  | OC[C@H]1O[C@@H](O[C@H]2[C@H](O)[C@@H](O)C(O)O[C@@H]2CO)[C@H](O)[C@@H](O)[C@H]1O (mixture of isomers) [Lac, lactose]

Second part, the compound before the results:

Row | SMILES | IC50 (human Gal-12 [1]) | IC50 (human Gal-4 [2]) | IC50 (human Gal-7 [3]) | IC50 (human Gal-1) | IC50 (human Gal-3) | Kd (human Gal-7 [4]) | Kd (human Gal-12 [5]) | -TΔS (human Gal-4 [6]) | ΔH (human Gal-4 [6]) | Kd (human Gal-4 [6])
5 | CC1OC(OC2C(OC3C(CO)OC(O)C(O)C3OC3OC(C)C(O)C(O)C3O)OC(CO)C(O)C2O)C(O)C(O)C1O (stereo not drawn) [DFL, 2′,3-difucosyllactose] | 4.5 ± 0.6 mM | 14.5 ± 0.7 mM | 18.4 ± 0.3 mM | 11.9 mM | 9.1 ± 0.9 mM |  |  |  |  | 
6 | CC(=O)NC1C(O)OC(CO)C(OC2OC(CO)C(O)C(O)C2O)C1OC1OC(C)C(O)C(O)C1O (stereo not drawn) [Le^X, Lewis X trisaccharide] | 2 ± 0.3 mM | 26.2 ± 0.9 mM | 15.1 ± 2 mM | 8.2 ± 0.9 mM | 9.5 ± 0.5 mM |  | 0.08 ± 0.009 mM |  |  | 
7 | CC(=O)NC1C(O)CC(OC2C(O)C(CO)OC(OC3C(CO)OC(O)C(O)C3OC3OC(C)C(O)C(O)C3O)C2O)(C(=O)O)OC1C(O)C(O)CO (stereo not drawn) [SFL, 3’-sialyl-3-fucosyllactose] | 3.2 ± 0.4 mM |  | 4.8 ± 0.9 mM | 5.7 ± 0.1 mM | 39 ± 0.6 mM |  | 0.151 ± 0.011 mM |  |  | 
8 | CC(=O)NC1C(O)OC(CO)C(OC2OC(CO)C(O)C(OC3OC(CO)C(O)C(O)C3NC(C)=O)C2OC2OC(C)C(O)C(O)C2O)C1O (stereo not drawn) [BGA2, blood group A antigen 2] | 25.3 ± 12 mM | 0.2 mM and 0.24 mM | 2.2 ± 0.4 mM | 6.3 mM and 6.32 mM | 1.9 ± 0.4 mM | 0.103 ± 0.008 mM |  | 0.263 ± 0.048 kcal/mol | -5.98 ± 0.48 kcal/mol | 0.065 ± 0.005 mM
9 | CC(=O)NC1C(O)OC(CO)C(OC2OC(CO)C(O)C(OC3(C(=O)O)CC(O)C(NC(C)=O)C(C(O)C(O)CO)O3)C2O)C1O (stereo not drawn) [3’-SLacNAc, 3’-sialyl-N-acetyllactosamine] | 9.8 ± 1 mM |  | 2.2 mM | 2.2 ± 0.04 mM | 4.8 ± 0.3 mM |  |  |  |  | 
